According to US7964352B2, “3′-OH unblocked nucleotides and nucleosides, base modified with labels and photocleavable, terminating groups and methods for their use in DNA sequencing” (priority 2006, dated 2011):
Read-outs that look alike come from different tables or passages of the source.

How the values were obtained:
Bst DNA polymerase = molecular target: T1, Bst DNA polymerase (Geobacillus stearothermophilus, UniProt P52026); experiment: Polymerase end-point (PEP) assay, Bst; assay type: biochemical
T1 construct: purchased
T1 sequence (P52026 1-876): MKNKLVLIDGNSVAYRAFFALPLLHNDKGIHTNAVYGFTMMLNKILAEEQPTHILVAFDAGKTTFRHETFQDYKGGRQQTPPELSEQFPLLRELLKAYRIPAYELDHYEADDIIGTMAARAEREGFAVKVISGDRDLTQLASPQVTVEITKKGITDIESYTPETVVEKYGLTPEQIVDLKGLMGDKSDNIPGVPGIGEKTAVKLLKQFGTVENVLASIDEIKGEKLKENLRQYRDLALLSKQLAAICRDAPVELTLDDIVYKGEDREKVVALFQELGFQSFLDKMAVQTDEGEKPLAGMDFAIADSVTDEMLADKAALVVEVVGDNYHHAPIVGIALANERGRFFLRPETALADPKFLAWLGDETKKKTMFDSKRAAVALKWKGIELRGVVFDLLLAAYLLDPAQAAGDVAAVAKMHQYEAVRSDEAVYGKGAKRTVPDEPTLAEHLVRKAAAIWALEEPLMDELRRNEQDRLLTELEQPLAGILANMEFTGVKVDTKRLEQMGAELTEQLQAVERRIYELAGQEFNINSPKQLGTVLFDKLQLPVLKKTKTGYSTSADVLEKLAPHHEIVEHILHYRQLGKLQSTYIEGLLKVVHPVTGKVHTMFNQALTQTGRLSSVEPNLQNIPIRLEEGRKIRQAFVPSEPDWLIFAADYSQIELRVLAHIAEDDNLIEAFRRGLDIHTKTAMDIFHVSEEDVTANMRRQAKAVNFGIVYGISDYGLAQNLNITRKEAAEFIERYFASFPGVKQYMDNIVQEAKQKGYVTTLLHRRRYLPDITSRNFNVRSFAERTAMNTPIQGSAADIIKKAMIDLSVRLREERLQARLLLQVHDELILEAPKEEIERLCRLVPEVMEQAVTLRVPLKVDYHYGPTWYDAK
Excerpt: (§1) Numerous groups have employed qualitative, Sanger-based assays to estimate relative incorporation efficiencies of terminating nucleotide analogs compared to their natural nucleotide counterparts. Although useful, the ability to assay modified nucleotide analogs in the absence of natural nucleotides is not feasible using these assays. These two limitations led to a quantitative, polymerase end-point (PEP) assay, which is utilized in a high-throughput manner for screening numerous modified nucleotides against a number of well-characterized, commercially available polymerases. Identification of lead compounds with a specific DNA polymerase could then be prioritized for further kinetic studies. The PEP assay is designed with the polymerase concentration in excess of the primer/template complex (i.e., this complex is fully bounded with polymerase at the start of the titration), thereby limiting reaction to nucleotide binding and nucleotyl coupling steps. Limiting amounts of the desired nucleotide are then titrated across the appropriate concentration range (generally three orders of magnitude) to observe extension of a dye-labeled primer by gel electrophoresis. The end-point concentration is determined from a semi-log plot where the number of moles of substrate and product are equal, called the IC50 (i.e., incorporation concentration at 50%) value.
(§2) For all polymerases evaluated in this study, 40 nM of oligo-template (5′-TACGGAGCA-[…], interrogation base is underlined and bolded) was annealed to 5 nM BODIPY-FL labeled primer (5′-TTGTAAAACGACGGCCAGT) in 1× ThermoPol buffer (20 mM Tris-HCl, pH 8.8; 10 mM (NH4)2SO4, 10 mM KCl; 2 mM MgSO4; 0.1% Triton X-100, New England BioLabs) at 80° C. for 30 seconds, 57° C. for 30 seconds, and then cooled to 4° C. The primer/template complex is then diluted by one-half (i.e., its final concentration is 2.5 nM in a volume of 10 μL) by the addition of DNA polymerase, nucleotide analog, and ThermoPol buffer. This defines the lower limit of the IC50 value for nucleotide titrations to 1.25 nM (i.e., [primer]=[primer+1]). Polymerase reactions were incubated at their appropriate temperature for 10 minutes, then cooled to 4° C. and quenched with 10 μL of stop solution (98% deionized formamide; 10 mM Na2EDTA, pH 8.0; 25 mg/mL Blue Dextran, MW 2,000,000). Stopped reactions were heated to 90° C. for 30 seconds, and then placed on ice. […] The PEP assays were performed in triplicate for each DNA polymerase/nucleotide analog combination to calculate its IC50 values±one standard deviation.
(§3) The number of activity units for eight commercially available, 3′-exonuclease deficient (3′-exo-) DNA polymerases was first determined by titration with 2′-deoxyadenosine triphosphate (dATP, concentration range from 0.1 nM to 100 nM) with the goal of reaching the PEP IC50 limit of 1.25 nM (data not shown). In general, increasing the number of units reduced the IC50 values for dATP towards this limit, with exception with Taq, THERMINATOR™, and THERMINATOR™ II. For these enzymes, there was an increase in IC50 values for dATP with increasing enzyme concentration, which was not investigated further and presumed to be due to a direct relationship with increasing enzyme concentration and phosphorolysis. For these cases, the number of units used for subsequent PEP assays were those activity units that gave the lowest IC50 values for dATP.
(§4) WW1p129 and ddATP were then titrated using the PEP assay with the eight DNA polymerases (unit activities previously defined) in the concentration range of either 0.1 nM to 100 nM, 1 nM to 1μM, 10 nM to 10μM, or 100 nM to 100 μM (see Table 1). UV-light sensitive compounds were handled at all times in low light conditions to minimize conversion to dATP.

[1] = molecular target: T2, Klenow (3′-exo-) DNA polymerase (Escherichia coli, UniProt P00582, D355A/E357A); experiment: Polymerase end-point (PEP) assay, Klenow (3′-exo-); assay type: biochemical; conditions: Klenow (3′-exo-): 37° C.; incorporation concentration at 50%
T2 construct: Klenow(-exo-) DNA polymerase; purchased
Excerpt: as §1
(§5) For all polymerases evaluated in this study, 40 nM of oligo-template (5′-TACGGAGCA-[…], interrogation base is underlined and bolded) was annealed to 5 nM BODIPY-FL labeled primer (5′-TTGTAAAACGACGGCCAGT) in 1× ThermoPol buffer (20 mM Tris-HCl, pH 8.8; 10 mM (NH4)2SO4, 10 mM KCl; 2 mM MgSO4; 0.1% Triton X-100, New England BioLabs) at 80° C. for 30 seconds, 57° C. for 30 seconds, and then cooled to 4° C. The primer/template complex is then diluted by one-half (i.e., its final concentration is 2.5 nM in a volume of 10 μL) by the addition of DNA polymerase, nucleotide analog, and ThermoPol buffer. This defines the lower limit of the IC50 value for nucleotide titrations to 1.25 nM (i.e., [primer]=[primer+1]). […]

Taq DNA polymerase = molecular target: T3, Taq DNA polymerase (Thermus aquaticus, UniProt P19821); experiment: Polymerase end-point (PEP) assay, Taq; assay type: biochemical; conditions: Taq: 68° C.; incorporation concentration at 50%
T3 construct: purchased
Excerpt: as §1, §5

[2] = molecular target: T4, AMPLITAQ DNA polymerase, FS (Taq FS) (Thermus aquaticus, UniProt P19821, F667Y/G46D); experiment: Polymerase end-point (PEP) assay, Taq FS; assay type: biochemical; conditions: Taq FS: 68° C.; incorporation concentration at 50%
T4 construct: purchased
Excerpt: as §1, §5

T[…] polymerase = molecular target: T5, T[…] polymerase (Thermococcus sp., UniProt Q56366, A485L/D141A/E143A); experiment: Polymerase end-point (PEP) assay, Therminator; assay type: biochemical, Thermococcus species 9°N-7
T5 construct: purchased
Excerpt: as §1, §2, §3, §4

T[…] DNA polymerase = molecular target: T6, T[…] DNA polymerase (Thermococcus sp., UniProt Q56366, A485L/D141A/E143A/Y409V); experiment: Polymerase end-point (PEP) assay, Therminator II; assay type: biochemical, Thermococcus species 9°N-7; conditions: Therminator II: 75° C.; incorporation concentration at 50%
T6 construct: purchased
Excerpt: as §1, §5

[3] = molecular target: T7, Vent (3′-exo-) DNA polymerase (Thermococcus litoralis, UniProt P30317, D141A/DEL1082-1471/DEL495-1032/E143A); experiment: Polymerase end-point (PEP) assay, Vent (3′-exo-); assay type: biochemical
T7 construct: purchased
Excerpt: as §1, §5

[4] = molecular target: T8, DeepVent (3′-exo-) DNA polymerase (Pyrococcus sp., UniProt Q51334, D141A/DEL493-1029/E143A); experiment: Polymerase end-point (PEP) assay, DeepVent (3′-exo-); assay type: biochemical, Pyrococcus species GB-D
T8 construct: purchased
Excerpt: as §1, §5

[5] = Bst: 65° C., IC50 = incorporation concentration at 50%, Table 1, read-out: IC50 values
[6] = Table 2, incorporation concentration at 50%, read-out: IC50 values, Bst
[7] = Table 2, incorporation concentration at 50%, read-out: IC50 values, Therminator
[8] = Therminator: 75° C., incorporation concentration at 50%, Table 1, read-out: IC50 values
[9] = Vent (3′-exo-): 72° C., incorporation concentration at 50%, read-out: IC50 values
[10] = DeepVent (3′-exo-): 72° C., incorporation concentration at 50%, read-out: IC50 values

T4 sequence (P19821 whole entry G46D/F667Y): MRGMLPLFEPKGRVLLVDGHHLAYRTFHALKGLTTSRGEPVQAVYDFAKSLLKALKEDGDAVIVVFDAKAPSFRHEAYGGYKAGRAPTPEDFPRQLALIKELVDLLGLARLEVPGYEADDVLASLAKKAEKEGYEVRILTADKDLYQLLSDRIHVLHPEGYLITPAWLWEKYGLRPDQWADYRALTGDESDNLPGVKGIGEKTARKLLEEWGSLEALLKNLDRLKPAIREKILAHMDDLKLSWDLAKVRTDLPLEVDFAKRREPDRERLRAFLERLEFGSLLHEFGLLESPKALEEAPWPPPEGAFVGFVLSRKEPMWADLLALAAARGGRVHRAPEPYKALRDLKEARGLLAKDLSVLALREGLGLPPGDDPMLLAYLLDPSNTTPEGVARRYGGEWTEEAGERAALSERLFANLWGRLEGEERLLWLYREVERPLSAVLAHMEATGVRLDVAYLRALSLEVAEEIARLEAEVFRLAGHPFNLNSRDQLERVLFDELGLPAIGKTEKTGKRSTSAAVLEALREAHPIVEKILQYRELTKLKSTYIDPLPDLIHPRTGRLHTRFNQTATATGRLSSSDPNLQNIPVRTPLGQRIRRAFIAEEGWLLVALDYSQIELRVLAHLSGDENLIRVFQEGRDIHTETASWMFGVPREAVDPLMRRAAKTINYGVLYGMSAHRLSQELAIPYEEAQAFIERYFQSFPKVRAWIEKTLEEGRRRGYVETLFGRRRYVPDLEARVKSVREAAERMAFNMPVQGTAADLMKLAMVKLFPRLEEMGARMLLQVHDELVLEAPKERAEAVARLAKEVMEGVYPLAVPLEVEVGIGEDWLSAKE
T7 sequence (P30317 other isoform, or with tags, fused parts or gaps D141A/E143A/DEL495-1032/DEL1082-1471): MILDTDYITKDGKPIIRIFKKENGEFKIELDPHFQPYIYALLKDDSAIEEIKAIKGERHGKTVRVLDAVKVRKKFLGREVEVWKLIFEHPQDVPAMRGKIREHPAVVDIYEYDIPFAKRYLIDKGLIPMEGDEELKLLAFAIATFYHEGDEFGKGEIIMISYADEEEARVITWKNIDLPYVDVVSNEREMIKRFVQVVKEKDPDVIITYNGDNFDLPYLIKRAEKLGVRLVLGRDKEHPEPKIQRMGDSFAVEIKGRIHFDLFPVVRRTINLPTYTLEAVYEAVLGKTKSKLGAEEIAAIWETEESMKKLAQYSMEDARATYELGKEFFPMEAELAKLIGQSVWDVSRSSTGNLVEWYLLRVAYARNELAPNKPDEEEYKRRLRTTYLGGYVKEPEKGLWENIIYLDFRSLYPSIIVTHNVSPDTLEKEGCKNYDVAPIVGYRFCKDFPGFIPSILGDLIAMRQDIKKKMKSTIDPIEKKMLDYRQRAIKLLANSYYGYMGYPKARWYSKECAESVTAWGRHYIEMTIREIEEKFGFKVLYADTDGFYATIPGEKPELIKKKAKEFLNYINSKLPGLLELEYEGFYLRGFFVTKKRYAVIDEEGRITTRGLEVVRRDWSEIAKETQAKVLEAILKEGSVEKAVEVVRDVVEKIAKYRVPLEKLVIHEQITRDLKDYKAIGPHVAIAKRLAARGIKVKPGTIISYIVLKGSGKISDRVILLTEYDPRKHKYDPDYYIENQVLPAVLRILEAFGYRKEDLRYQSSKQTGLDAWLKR
T8 sequence (Q51334 other isoform, or with tags, fused parts or gaps D141A/E143A/DEL493-1029): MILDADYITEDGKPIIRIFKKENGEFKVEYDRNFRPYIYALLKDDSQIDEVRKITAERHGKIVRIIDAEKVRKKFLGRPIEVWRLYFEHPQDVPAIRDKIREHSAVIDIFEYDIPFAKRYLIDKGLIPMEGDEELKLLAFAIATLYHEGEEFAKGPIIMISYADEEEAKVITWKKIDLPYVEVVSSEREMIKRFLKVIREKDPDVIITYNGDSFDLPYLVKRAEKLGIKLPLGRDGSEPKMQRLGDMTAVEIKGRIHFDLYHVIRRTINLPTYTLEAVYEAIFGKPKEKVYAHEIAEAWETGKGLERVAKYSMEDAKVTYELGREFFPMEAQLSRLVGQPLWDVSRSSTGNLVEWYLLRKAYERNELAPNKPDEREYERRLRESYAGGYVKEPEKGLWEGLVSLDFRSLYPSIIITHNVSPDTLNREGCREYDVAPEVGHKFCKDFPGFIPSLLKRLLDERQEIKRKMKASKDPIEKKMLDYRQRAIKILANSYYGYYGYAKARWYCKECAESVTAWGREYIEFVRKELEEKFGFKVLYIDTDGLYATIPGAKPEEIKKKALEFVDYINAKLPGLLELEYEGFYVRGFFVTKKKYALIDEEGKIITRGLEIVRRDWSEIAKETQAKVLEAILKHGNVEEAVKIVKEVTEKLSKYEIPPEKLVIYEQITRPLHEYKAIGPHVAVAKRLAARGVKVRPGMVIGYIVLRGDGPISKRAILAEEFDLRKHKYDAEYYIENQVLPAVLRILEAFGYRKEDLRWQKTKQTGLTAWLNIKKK
T2 sequence (P00582 324-928 D355A/E357A): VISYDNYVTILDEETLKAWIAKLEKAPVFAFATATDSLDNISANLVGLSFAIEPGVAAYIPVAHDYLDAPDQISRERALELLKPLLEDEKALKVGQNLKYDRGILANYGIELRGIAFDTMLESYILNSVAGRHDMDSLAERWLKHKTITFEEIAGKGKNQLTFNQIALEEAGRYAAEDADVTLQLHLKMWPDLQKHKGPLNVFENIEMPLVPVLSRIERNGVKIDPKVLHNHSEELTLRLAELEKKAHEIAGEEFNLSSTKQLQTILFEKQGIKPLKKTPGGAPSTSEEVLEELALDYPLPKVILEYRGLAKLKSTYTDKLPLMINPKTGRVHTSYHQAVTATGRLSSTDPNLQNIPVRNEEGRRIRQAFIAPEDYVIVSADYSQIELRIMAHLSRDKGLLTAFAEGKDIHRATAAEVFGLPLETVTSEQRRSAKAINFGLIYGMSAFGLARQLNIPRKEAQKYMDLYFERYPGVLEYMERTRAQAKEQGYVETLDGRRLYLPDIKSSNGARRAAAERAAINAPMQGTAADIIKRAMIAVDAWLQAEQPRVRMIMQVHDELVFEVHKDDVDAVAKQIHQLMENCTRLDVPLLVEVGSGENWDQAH
T6 sequence (Q56366 whole entry D141A/E143A/Y409V/A485L): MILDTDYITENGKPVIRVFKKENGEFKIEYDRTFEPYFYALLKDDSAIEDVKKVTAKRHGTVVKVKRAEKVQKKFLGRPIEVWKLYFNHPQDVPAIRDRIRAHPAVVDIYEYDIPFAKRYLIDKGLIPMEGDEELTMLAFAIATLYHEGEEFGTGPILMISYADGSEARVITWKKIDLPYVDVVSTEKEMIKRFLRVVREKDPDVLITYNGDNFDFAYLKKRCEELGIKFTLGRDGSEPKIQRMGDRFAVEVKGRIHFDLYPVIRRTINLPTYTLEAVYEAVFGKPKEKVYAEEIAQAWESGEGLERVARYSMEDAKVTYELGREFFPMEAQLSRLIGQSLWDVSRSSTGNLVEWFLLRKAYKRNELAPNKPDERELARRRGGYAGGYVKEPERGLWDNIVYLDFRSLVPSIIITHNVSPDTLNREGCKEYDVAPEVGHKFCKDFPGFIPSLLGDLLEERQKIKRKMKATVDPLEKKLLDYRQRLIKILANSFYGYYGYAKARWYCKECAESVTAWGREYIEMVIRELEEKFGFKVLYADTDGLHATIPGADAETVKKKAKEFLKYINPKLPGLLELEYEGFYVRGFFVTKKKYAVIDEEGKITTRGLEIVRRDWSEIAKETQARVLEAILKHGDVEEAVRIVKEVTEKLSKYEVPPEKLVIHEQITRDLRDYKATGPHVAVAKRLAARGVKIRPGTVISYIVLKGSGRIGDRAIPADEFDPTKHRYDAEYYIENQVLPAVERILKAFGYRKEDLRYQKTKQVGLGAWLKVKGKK
T3 sequence (P19821 whole entry): as the sequence (P19821 whole entry G46D/F667Y) above, with D46G, Y667F counted along it
T5 sequence (Q56366 whole entry D141A/E143A/A485L): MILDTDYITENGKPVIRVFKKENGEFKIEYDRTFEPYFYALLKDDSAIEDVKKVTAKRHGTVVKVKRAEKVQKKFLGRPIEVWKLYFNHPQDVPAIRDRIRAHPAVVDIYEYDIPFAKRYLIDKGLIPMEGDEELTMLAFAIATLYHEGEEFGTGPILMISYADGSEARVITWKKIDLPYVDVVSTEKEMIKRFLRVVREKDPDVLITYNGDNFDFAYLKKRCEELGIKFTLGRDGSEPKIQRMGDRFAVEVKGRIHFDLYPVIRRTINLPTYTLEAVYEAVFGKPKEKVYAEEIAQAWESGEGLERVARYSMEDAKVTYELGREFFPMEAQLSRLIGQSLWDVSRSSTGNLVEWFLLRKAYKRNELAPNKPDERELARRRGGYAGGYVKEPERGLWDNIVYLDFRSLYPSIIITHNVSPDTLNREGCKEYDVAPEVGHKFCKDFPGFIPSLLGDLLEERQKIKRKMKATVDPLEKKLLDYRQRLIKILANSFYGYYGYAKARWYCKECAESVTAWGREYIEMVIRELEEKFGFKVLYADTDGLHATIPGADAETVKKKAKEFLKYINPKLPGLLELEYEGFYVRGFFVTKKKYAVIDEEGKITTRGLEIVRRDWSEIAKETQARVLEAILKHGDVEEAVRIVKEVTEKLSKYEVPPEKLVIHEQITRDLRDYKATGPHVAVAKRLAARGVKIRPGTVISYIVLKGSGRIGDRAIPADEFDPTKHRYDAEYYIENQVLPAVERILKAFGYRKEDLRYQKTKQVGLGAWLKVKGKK

| Molecule | IC50 (Bst DNA polymerase; [6]) [nM] | IC50 [1] [nM] | IC50 (Taq DNA polymerase) [nM] | IC50 [2] [nM] | IC50 (T[…] polymerase; [7]) [nM] | IC50 (T[…] polymerase; [8]) [nM] | IC50 (T[…] DNA polymerase) [nM] | further results |
| --- | --- | --- | --- | --- | --- | --- | --- | --- |
| O=[N+]([O-])c1ccccc1CNc1ncnc2c1ncn2[C@H]1C[C@H](O)[C@@H](COP(=O)(O)OP(=O)(O)OP(=O)(O)O)O1 [WW1p129, N^6-(2-Nitrobenzyl)-2′-deoxyadenosine-5′-triphosphate] | 39 ± 9 | 4.3 ± 0.2 | 2100 ± 200 | 890 ± 60 | 2.5 ± 0.4 | 3.1 ± 0.4 | 7.8 ± 0.7 | IC50 (Bst DNA polymerase; [5]): 21 ± 3 nM; IC50 [3, 9]: 2.1 ± 0.2 nM; IC50 [4, 10]: 11 ± 0.6 nM |
| O=c1[nH]c(=O)n([C@H]2C[C@H](O)[C@@H](COP(=O)(O)OP(=O)(O)OP(=O)(O)O)O2)cc1COCc1ccccc1[N+](=O)[O-] [VL3p03085, 5-(2-Nitrobenzyloxymethyl)-2′-deoxyuridine-5′-triphosphate] | 138 ± 38 |  |  |  | 1.1 ± 0.1 |  |  |  |
| Nc1nc(OCc2ccc(C#CCNC(=O)c3ccc(C(=O)[O-])c(C4=c5cc6c7c(c5Oc5c4cc4c8c5CCCN8CCC4)CCC[N+]=7CCC6)c3)cc2[N+](=O)[O-])c2ncn([C@H]3C[C@H](O)[C@@H](COP(=O)(O)OP(=O)(O)OP(=O)(O)O)O3)c2n1 [WW2p121, 6-ROX Labeled O^6-[4-(3-Amino-1-propynyl)-2-nitrobenzyl]-2′-deoxyguanosine-5′-triphosphate] |  |  |  |  |  |  |  | IC50 (T[…] polymerase): 6.3 ± 0.4 nM |
| 6-JOE Labeled 5-[4-(3-Amino-1-propynyl)-2-nitrobenzyloxymethyl]-2′-deoxyuridine-5′-triphosphate [WW2p075] |  |  |  |  | 3.8 ± 1.1 |  |  |  |
| CN(C)c1ccc2c(-c3cc(C(=O)NCC#Cc4ccc(CNc5ccn([C@H]6C[C@H](O)[C@@H](COP(=O)(O)OP(=O)(O)OP(=O)(O)O)O6)c(=O)n5)c([N+](=O)[O-])c4)ccc3C(=O)[O-])c3ccc(=[N+](C)C)cc-3oc2c1 [WW2p080, 6-TAMRA Labeled N^4-[4-(3-Amino-1-propynyl)-2-nitrobenzyl]-2′-deoxycytidine-5′-triphosphate] |  |  |  |  | 3 ± 0.6 |  |  |  |
| Nc1nc(OCc2ccccc2[N+](=O)[O-])c2ncn([C@H]3C[C@H](O)[C@@H](COP(=O)(O)OP(=O)(O)OP(=O)(O)O)O3)c2n1 [WW2p077, O^6-(2-Nitrobenzyl)-2′-deoxyguanosine-5′-triphosphate] | 3800 ± 200 |  |  |  | 6.9 ± 0.5 |  |  |  |
| O=c1nc(NCc2ccccc2[N+](=O)[O-])ccn1[C@H]1C[C@H](O)[C@@H](COP(=O)(O)OP(=O)(O)OP(=O)(O)O)O1 [WW2p044, N^4-(2-Nitrobenzyl)-2′-deoxycytidine-5′-triphosphate] | 57 ± 11 |  |  |  |  |  |  | IC50 (T[…] polymerase): 1.8 ± 0.2 nM |
| Nc1ncnc2c1ncn2[C@H]1CC[C@@H](COP(=O)(O)OP(=O)(O)OP(=O)(O)O)O1 [ddATP] |  | 29 ± 5 | 12600 ± 900 | 3.3 ± 0.1 |  | 9.7 ± 1.1 | 230 ± 30 | IC50 (Bst DNA polymerase; [5]): 370 ± 30 nM; IC50 [3, 9]: 550 ± 40 nM; IC50 [4, 10]: 3400 ± 400 nM |
| Nc1ncnc2c1ncn2[C@H]1C[C@H](O)[C@@H](COP(=O)(O)OP(=O)(O)OP(=O)(O)O)O1 [dATP, 2′-deoxyadenosine triphosphate] |  | 1.6 ± 0.1 | 5.5 ± 0.5 | 5.3 ± 0.1 |  | 2.3 ± 0.3 | 4.4 ± 0.6 | IC50 [3]: 1.6 ± 0.2 nM; IC50 [4]: 2.8 ± 0.2 nM |
